The source of these data is patent publication US20030071268A1, “Optical data storage medium containing a diaza hemicyanine dye as the light-absorbing compound in the information layer” (priority 2001, published 2003).

Common to all, as to format: physicochemical
The nature of data set [1]: absorption spectra measured in solution. Here is the method:
(§1) For a recordable optical data storage medium according to the invention which is recorded on and read using light from a blue laser, such diaza hemicyanine dyes are preferred whose absorption maximum λmax2 is in the range from 420 to 550 nm, wherein the wavelength λ½ at which the extinction on the short-wavelength slope of the absorption maximum of the wavelength λmax2 is half the extinction value at λmax2, and the wavelength λ 1/10, at which the extinction on the short-wavelength slope of the absorption maximum of the wavelength λmax2 is a tenth of the extinction value at λmax2, are preferably in each case no further than 50 nm away from each other.
as §1, with “a red” for “a blue”, “from 500” for “from 420”, “to 650” for “to 550”, “the long-wavelength” for “the short-wavelength”, “50 mn” for “50 nm”, “other. […]” for “other.”
The absorption spectra are, for example, measured in solution.

Another data set in a line: film appearance. The text has this: In addition to the above-mentioned optical properties, the recordable information layer consisting of light-absorbing organic substances must have a morphology which is as amorphous as possible, in order to keep the noise signal during recording or reading as small as possible. For this purpose it is particularly preferable, when applying the substances by spin-coating from a solution or by vapour deposition and/or sublimation, to prevent crystallization of the light-absorbing substances during the subsequent top-coating with metallic or dielectric layers in vacuo.

A short description of data set [2]: solubility in TFP (2,2,3,3-tetrafluoropropanol).

In data set [1] (Example 1), `CC(C)N(c1n[n+](C)c(/N=N/c2sc(N3CCOCC3)nc2-c2ccccc2)s1)C(C)C` [Example 1] showed a ε of 30100 mol⁻¹ cm⁻¹. In data set [1] (in methanol), this compound showed a λmax of 592 nm. Besides, in the data set “film appearance”, the film appearance entry was “a glassy film”. The compound further yielded a Solubility in data set [2] of over 2%.
